Key:
FPR2 R201A [1] = molecular target: T1, FPR2 R201A (Homo sapiens, UniProt P25090, R201A); assay: 35S-GTPγS binding assay, HEK-293 cell membranes with purified Gi, FPR2 R201A; assay type: biochemical; parameters: FLAG; expressed in transfected cells; host or cells: HEK-293 cells, transient, membranes
Target sequence in this assay (P25090 whole entry R201A): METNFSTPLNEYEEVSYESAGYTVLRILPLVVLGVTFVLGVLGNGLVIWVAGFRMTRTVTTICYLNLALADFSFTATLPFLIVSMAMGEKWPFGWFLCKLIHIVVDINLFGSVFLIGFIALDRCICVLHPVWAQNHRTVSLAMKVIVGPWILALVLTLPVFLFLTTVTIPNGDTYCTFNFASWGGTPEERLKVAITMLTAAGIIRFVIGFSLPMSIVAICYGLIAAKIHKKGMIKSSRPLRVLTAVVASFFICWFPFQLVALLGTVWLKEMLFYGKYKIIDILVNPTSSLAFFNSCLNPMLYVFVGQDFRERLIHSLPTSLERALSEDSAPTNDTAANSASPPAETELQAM
Target sequence in this assay (P63096 whole entry partner): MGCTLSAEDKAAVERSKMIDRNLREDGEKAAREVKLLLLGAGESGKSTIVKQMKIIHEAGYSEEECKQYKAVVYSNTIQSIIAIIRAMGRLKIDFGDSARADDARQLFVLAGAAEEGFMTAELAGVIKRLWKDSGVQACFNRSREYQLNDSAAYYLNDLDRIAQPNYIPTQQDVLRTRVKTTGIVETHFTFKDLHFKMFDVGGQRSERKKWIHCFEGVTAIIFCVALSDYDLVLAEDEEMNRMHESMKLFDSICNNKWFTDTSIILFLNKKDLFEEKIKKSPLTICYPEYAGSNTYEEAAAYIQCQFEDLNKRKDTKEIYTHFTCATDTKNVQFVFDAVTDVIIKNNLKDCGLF
Target sequence in this assay (P54311 whole entry partner): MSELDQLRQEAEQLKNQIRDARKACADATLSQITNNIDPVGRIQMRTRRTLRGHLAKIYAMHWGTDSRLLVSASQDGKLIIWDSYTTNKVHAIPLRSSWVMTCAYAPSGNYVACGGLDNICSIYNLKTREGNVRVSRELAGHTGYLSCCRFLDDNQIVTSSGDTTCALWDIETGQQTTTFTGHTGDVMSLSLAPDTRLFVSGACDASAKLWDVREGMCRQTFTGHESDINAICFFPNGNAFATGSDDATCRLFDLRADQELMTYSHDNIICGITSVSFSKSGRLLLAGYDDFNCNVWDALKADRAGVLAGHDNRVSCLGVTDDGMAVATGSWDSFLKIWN
Target sequence in this assay (P63212 2-68 partner limits assumed): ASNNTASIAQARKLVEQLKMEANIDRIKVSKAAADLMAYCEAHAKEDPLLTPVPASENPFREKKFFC

FPR2 R201A [2] = molecular target: T1, FPR2 R201A; assay: BRET assay of Gi coupling to FPR2-Rluc8, permeabilized HEK-293 cells, R201A; assay type: cell-based; parameters: expressed in transfected cells; host or cells: HEK-293 cells (ATCC), transient, digitonin-permeabilized
Method: (§1) HEK-293 cells (ATCC, Manassas, VA, USA) were propagated in plastic flasks and on 6-well plates according to the supplier’s protocol. To measure Gi coupling to FPR2, cells were transiently transfected with an FPR2-Rluc8 receptor (wt or mutant) and Gαi1, Venus-1-155-Gγ2 and Venus-155-239-Gβ1 using linear polyethyleneimine MAX (PEI MAX; MW 40,000) at an N/P ratio of 20 and were used for experiments 48 h later. Up to 3.0 μg of plasmid DNA was transfected in each well of a 6-well plate. To measure BRET signals, cells were washed twice with permeabilization buffer (KPS) containing 140 mM KCl, 10 mM NaCl, 1 mM MgCl2, 0.1 mM KEGTA, 20 mM NaHEPES (pH 7.2), harvested by trituration, permeabilized in KPS buffer containing 10 μg ml^−1 high purity digitonin, and transferred to opaque black 96-well plates containing diluted ligands and 2U ml^−1 apyrase. After addition of coelenterazine h (5 µM; Nanolight, Pinetop, AZ, USA), steady-state BRET measurements were made using a Mithras LB940 photon-counting plate reader (Berthold Technologies GmbH, Bad Wildbad, Germany). Raw BRET signals were calculated as the emission intensity at 520–545 nm divided by the emission intensity at 475–495 nm. The data were analyzed in Prism (GraphPad) by using ‘log(agonist) vs normalized response- variable slope (four parameters)’ of dose-response stimulation.
Target sequence in this assay (P25090 whole entry R201A): as the sequence (P25090 whole entry R201A) above
Target sequence in this assay (P63096 whole entry partner): as the sequence (P63096 whole entry partner) above
Target sequence in this assay (P59768 whole entry partner): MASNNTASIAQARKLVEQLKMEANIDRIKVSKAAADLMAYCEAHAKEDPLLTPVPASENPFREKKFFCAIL
Target sequence in this assay (P62873 whole entry partner): as the sequence (P54311 whole entry partner) above

FPR2 R205A [3] = molecular target: T2, FPR2 R205A (Homo sapiens, UniProt P25090, R205A); assay: 35S-GTPγS binding assay, HEK-293 cell membranes with purified Gi, FPR2 R205A; assay type: biochemical; parameters: FLAG; expressed in transfected cells; host or cells: HEK-293 cells, transient, membranes
Target sequence in this assay (P25090 whole entry R205A): as the sequence (P25090 whole entry R201A) above, with A201R, R205A counted along it
Target sequence in this assay (P63096 whole entry partner): as the sequence (P63096 whole entry partner) above
Target sequence in this assay (P54311 whole entry partner): as the sequence (P54311 whole entry partner) above
Target sequence in this assay (P63212 2-68 partner limits assumed): as the sequence (P63212 2-68 partner limits assumed) above

FPR2 R205A [4] = molecular target: T2, FPR2 R205A; assay: BRET assay of Gi coupling to FPR2-Rluc8, permeabilized HEK-293 cells, R205A; assay type: cell-based; parameters: expressed in transfected cells; host or cells: HEK-293 cells (ATCC), transient, digitonin-permeabilized
Method: as §1
Target sequence in this assay (P25090 whole entry R205A): as the sequence (P25090 whole entry R201A) above, with A201R, R205A counted along it
Target sequence in this assay (P63096 whole entry partner): as the sequence (P63096 whole entry partner) above
Target sequence in this assay (P59768 whole entry partner): as the sequence (P59768 whole entry partner) above
Target sequence in this assay (P62873 whole entry partner): as the sequence (P54311 whole entry partner) above

[5] = Aggregation of the ligand in assay buffer (authors' reply to reviewer); assay type: physicochemical; conditions: peptide with a high hydrophobicity; authors' statement in rebuttal, no data shown
C5aR = molecular target: T3, C5aR (Homo sapiens, UniProt P21730); assay: 35S-GTPγS binding assay, Sf9 cell membranes overexpressing C5aR with purified Gi (control); assay type: biochemical; conditions: increasing concentrations of WKYMVm, n = 3
T3 construct: expressed in transfected cells; host or cells: Sf9 insect cells, membranes
T3 sequence (P21730 1-350): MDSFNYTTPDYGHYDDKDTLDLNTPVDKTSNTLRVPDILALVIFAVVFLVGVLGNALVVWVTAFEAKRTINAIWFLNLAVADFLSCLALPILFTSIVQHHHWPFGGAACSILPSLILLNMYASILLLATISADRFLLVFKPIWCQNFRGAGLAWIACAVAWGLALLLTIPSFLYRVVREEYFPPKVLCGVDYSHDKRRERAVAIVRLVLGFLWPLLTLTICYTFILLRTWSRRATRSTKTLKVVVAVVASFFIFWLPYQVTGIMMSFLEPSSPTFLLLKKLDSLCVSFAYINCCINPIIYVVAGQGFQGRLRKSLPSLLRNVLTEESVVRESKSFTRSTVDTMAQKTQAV
Method: To form receptor-Gi complex, ~250 μg/ml of membrane of Sf9 cells overexpressing FPR2 or C5aR (for Fig. 1a) or membrane of HEK-293 cells transiently expressing FPR2 and mutants was incubated with 200 nM purified Gi protein for 25 minutes at 4°C in buffer containing 20 mM HEPES pH 7.5, 100 mM NaCl, 5 mM MgCl2, 5 μM GDP, 0.1 μM TCEP, and 3 μg/ml BSA. […] After 10–15 min reaction at 25 °C, 4 ml of cold wash buffer containing 20 mM HEPES pH 7.5, 100 mM NaCl and 5 mM MgCl2 was added to terminate the reaction, and the membranes was collected by filtering through glass fiber prefilters (Millipore Sigma). After four times additional wash, the filters were incubated with 5 ml of CytoScint liquid scintillation cocktail (MP Biomedicals) and counted in a Beckman LS6500 scintillation counter to determine the receptor activation induced binding of ^35S-GTPγS to Gi. The data were analyzed by GraphPad Prism 6 (GraphPad Software). Results are presented as mean ± s.e.m. from three independent experiments.

FPR1 = conditions: cited from earlier work
Excerpt: FPR1 and FPR2 share a high 69% sequence identity, but they have distinct preferences for formylpeptides and play different roles in host defense[4],[40],[43]. […] To explore the molecular basis for the different receptor pharmacology, we generated a three-dimensional homology model of FPR1 ...

Wild type FPR2 = conditions: cited from earlier work
Excerpt: IC50 values of six formylpeptides in the cAMP accumulation assays reported previously by He et al., 2014*.

## fMLFII [short formylpeptide]
FPR2 R201A [1]
  fMLFII-induced FPR2 activation, R201A mutant versus wt: dramatic decrease
FPR2 R201A [2]
  fMLFII-induced Gi coupling, R201A mutant versus wt: dramatic decrease
FPR2 R205A [3]
  fMLFII-induced FPR2 activation, R205A mutant versus wt: dramatic decrease
FPR2 R205A [4]
  fMLFII-induced Gi coupling, R205A mutant versus wt: dramatic decrease
[5]
  concentration above which fractions of aggregation could occur: above 10 µM

## Trp-Lys-Tyr-Met-Val-d-Met-NH2 [WKYMVm, synthetic peptide agonist of FPR2]
C5aR
  WKYMVm-induced Gi activation with C5aR (control): didn’t induce Gi activation
FPR1
  potency for FPR1 compared with FPR2: lower potency

## fMLF
FPR1
  fold more potent in activating FPR1 than activating FPR2: ~ 1000 fold

## fMLFK
Wild type FPR2
  fold higher potency in activating FPR2 than fMLFE: 500–5000 fold

Reference: paper PMC7021761 (Nature Communications, 2020)
